The results in this text go back to patent US10308639B2, “Phosphatidylinositol 3-kinase inhibitors” (Gilead Sciences, Inc., priority 2014, dated 2019).

As usually defined, the IC50 is the midpoint of a concentration-inhibition curve.

What all share (type): biochemical
The target in one test is T1, PI3Kβ (Homo sapiens, UniProt P42338).
T1 construct: made in house
Put plainly: TR-FRET enzymatic activity assay, PI3Kβ. The conditions noted are these: Table 2; TR-FRET, 2x Km ATP, 30 minutes at 25° C.

The target of the next test is T2, PI3Kδ (Homo sapiens, UniProt O00329).
T2 construct: made in house
Kind of test: TR-FRET enzymatic activity assay, PI3Kδ. The conditions noted are these: Table 2; TR-FRET, 2x Km ATP, 30 minutes at 25° C. For orientation: TR-FRET usually uses a lanthanide donor and a delayed reading to cut background.

The target in another test is T3, PI3Kγ (Homo sapiens, UniProt P48736).
T3 construct: made in house
Put plainly: TR-FRET enzymatic activity assay, PI3Kγ. Conditions: read-out: PI3Kγ IC50. The procedure, abridged:
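Each PI3K isoform is tested in an enzymatic format. Signal comes from time-resolved fluorescence energy transfer.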

Where [1] appears, read: Table 2, TR-FRET, 2x Km ATP, 30 minutes at 25° C.

Read-outs that look alike come from different tables or passages of the source.

T3 sequence (P48736 whole entry): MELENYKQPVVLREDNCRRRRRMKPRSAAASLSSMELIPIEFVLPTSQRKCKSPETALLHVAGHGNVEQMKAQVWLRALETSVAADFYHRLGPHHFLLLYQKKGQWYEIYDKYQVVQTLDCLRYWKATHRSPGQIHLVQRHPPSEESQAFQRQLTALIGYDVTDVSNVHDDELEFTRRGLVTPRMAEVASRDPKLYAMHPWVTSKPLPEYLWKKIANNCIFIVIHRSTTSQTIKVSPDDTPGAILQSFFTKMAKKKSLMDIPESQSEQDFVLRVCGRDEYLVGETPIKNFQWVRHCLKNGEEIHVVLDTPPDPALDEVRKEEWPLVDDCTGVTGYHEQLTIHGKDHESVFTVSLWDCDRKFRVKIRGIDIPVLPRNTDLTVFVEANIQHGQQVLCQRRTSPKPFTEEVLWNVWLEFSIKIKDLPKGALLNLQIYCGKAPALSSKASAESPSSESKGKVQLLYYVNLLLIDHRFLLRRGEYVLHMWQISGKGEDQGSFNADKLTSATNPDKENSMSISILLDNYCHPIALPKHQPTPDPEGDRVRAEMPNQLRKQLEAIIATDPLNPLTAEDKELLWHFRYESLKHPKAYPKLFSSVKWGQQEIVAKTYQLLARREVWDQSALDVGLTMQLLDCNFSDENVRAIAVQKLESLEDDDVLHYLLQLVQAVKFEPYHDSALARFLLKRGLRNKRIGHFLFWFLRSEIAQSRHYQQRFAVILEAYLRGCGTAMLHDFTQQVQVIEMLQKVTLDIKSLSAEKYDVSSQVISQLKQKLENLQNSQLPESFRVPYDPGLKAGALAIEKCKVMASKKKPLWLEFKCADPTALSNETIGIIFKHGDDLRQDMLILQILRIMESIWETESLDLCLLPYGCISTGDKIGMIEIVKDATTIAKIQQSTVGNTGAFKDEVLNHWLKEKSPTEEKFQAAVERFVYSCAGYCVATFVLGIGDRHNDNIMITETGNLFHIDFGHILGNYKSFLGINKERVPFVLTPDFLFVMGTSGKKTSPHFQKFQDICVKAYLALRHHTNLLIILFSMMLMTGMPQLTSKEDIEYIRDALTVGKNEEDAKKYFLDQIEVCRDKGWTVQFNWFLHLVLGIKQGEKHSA
T2 sequence (O00329 whole entry): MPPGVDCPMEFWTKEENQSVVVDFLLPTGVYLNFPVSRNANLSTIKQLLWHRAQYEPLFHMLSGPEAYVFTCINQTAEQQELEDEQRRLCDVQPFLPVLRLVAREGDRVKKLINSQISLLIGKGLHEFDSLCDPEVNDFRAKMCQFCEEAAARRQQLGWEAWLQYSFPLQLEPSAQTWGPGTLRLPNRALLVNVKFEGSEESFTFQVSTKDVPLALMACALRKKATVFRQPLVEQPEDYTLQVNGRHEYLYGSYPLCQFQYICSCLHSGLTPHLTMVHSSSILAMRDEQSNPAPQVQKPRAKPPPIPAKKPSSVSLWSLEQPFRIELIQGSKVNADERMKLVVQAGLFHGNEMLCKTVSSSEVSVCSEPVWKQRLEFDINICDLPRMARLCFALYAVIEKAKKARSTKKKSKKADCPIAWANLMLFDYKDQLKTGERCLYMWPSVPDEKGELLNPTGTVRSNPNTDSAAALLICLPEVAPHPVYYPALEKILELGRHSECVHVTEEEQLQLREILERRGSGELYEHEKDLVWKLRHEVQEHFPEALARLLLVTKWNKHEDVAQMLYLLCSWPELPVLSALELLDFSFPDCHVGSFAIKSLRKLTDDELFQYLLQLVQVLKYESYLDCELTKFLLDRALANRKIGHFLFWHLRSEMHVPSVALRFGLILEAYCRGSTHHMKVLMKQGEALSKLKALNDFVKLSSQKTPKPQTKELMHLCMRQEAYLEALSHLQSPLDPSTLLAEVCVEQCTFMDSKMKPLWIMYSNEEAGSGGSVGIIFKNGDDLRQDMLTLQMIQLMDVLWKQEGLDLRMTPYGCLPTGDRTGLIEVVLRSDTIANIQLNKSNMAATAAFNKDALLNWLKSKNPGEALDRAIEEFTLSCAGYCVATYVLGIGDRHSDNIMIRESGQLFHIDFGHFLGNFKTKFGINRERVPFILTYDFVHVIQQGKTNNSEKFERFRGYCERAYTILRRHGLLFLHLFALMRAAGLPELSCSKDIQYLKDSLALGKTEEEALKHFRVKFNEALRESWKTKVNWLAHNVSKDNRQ
T2 sequence (P27986 whole entry partner): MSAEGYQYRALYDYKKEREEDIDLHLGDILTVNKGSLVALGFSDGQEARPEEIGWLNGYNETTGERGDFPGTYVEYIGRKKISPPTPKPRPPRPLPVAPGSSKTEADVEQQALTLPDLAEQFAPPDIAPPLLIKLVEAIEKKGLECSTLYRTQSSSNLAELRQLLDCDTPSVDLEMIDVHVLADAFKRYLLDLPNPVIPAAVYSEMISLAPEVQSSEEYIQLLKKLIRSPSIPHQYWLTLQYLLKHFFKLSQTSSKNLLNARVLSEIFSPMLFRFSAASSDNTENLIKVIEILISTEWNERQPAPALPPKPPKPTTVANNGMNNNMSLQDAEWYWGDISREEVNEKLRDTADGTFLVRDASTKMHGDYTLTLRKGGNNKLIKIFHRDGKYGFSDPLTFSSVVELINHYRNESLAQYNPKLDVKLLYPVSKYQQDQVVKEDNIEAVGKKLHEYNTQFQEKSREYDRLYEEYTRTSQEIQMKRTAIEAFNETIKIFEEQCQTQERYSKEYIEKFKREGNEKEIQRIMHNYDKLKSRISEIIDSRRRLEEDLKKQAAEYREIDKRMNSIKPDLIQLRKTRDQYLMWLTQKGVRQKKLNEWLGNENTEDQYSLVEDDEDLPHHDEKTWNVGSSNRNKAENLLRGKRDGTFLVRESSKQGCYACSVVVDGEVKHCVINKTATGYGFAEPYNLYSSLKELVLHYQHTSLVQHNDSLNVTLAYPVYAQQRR
T1 sequence (P42338 whole entry): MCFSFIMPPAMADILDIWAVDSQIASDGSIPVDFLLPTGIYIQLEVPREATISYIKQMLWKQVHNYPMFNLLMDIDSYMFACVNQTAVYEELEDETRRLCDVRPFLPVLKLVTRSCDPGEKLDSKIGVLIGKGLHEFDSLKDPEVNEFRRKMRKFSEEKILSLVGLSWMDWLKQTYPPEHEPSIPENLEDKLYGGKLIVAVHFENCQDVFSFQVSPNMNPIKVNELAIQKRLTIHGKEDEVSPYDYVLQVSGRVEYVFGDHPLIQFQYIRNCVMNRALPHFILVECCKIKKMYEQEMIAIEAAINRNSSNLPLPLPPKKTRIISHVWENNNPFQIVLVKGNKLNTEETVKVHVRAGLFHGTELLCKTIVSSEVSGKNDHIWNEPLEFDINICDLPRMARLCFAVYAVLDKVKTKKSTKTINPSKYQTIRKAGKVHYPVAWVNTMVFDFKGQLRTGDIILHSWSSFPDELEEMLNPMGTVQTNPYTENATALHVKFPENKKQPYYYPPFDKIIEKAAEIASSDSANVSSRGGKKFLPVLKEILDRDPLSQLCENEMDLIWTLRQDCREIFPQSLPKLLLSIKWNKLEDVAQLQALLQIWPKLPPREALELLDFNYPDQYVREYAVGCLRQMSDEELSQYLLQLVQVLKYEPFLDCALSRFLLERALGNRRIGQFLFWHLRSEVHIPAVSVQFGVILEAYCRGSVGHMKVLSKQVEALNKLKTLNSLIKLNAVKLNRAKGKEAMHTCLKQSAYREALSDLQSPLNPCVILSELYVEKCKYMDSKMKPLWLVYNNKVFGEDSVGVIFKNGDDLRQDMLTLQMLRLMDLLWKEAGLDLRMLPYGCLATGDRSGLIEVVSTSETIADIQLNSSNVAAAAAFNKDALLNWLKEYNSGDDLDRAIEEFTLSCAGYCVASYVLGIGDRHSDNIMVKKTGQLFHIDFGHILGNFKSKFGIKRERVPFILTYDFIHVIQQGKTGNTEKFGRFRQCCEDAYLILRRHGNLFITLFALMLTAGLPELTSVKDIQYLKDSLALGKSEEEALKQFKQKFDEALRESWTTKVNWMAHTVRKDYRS
T1 sequence (P27986 whole entry partner): as the sequence (P27986 whole entry partner) above

Turning to `CC[C@H](Nc1ncnc2scnc12)c1nc2c(Cl)ccc(Cl)c2c(=O)n1-c1n[nH]cc1Br` [Compound 86, (S)-3-(4-bromo-1H-pyrazol-3-yl)-5,8-dichloro-2-(1-(thiazolo[5,4-d]pyrimidin-7-ylamino)propyl)quinazolin-4(3H)-one], the IC50 against PI3Kβ is 0.34 µM; against PI3Kδ, 0.019 µM; on PI3Kγ it was above 10 µM.

For `CC[C@H](Nc1ncnc2scnc12)c1nc2cccc(S(C)(=O)=O)c2c(=O)n1-c1cc[nH]n1` [Compound 87, (S)-5-(methylsulfonyl)-3-(1H-pyrazol-3-yl)-2-(1-(thiazolo[5,4-d]pyrimidin-7-ylamino)propyl)quinazolin-4(3H)-one], the IC50 on PI3Kβ was 0.07 µM; at PI3Kδ it was 0.0004 µM; on PI3Kγ (setting [1]) it was 8.2 µM.

As to `CC[C@H](Nc1nc(Cl)nc2[nH]nc(C)c12)c1nc2c(Cl)ccc(Cl)c2c(=O)n1-c1cc[nH]n1` [Compound 88, (S)-5,8-dichloro-2-(1-((6-chloro-3-methyl-1H-pyrazolo[3,4-d]pyrimidin-4-yl)amino)propyl)-3-(1H-pyrazol-3-yl)quinazolin-4(3H)-one], the IC50 was 4.2 µM against PI3Kβ, 2.7 µM on PI3Kδ and above 10 µM on PI3Kγ.

Regarding `Cc1n[nH]c2nc(Cl)nc(N[C@@H](C)c3nc4cccc(Cl)c4c(=O)n3-c3cc[nH]n3)c12` [Compound 89, (S)-5-chloro-2-(1-((6-chloro-3-methyl-1H-pyrazolo[3,4-d]pyrimidin-4-yl)amino)ethyl)-3-(1H-pyrazol-3-yl)quinazolin-4(3H)-one], the half-inhibitory concentration (IC50) is 3.1 µM against PI3Kβ, 1.9 µM against PI3Kδ and above 10 µM at PI3Kγ.

Take `C[C@H](Nc1nc(N)nc2[nH]ncc12)c1nc2cccc(Cl)c2c(=O)n1-c1cc[nH]n1` [Compound 90, (S)-2-(1-((6-amino-1H-pyrazolo[3,4-d]pyrimidin-4-yl)amino)ethyl)-5-chloro-3-(1H-pyrazol-3-yl)quinazolin-4(3H)-one]: the half-maximal inhibitory concentration (IC50) against PI3Kβ is 1.8 µM; at PI3Kδ it was 0.83 µM; at PI3Kγ, above 10 µM.

Take `C[C@H](Nc1nc(Cl)nc2[nH]ncc12)c1nc2cccc(Cl)c2c(=O)n1-c1cc[nH]n1` [Compound 91, (S)-5-chloro-2-(1-((6-chloro-1H-pyrazolo[3,4-d]pyrimidin-4-yl)amino)ethyl)-3-(1H-pyrazol-3-yl)quinazolin-4(3H)-one]: the figures for the IC50 against PI3Kβ, against PI3Kδ and at PI3Kγ were 3.6 µM, 2.4 µM and above 10 µM, respectively.

Regarding `C[C@H](Nc1nc(N)nc2[nH]nc(Br)c12)c1nc2cccc(Cl)c2c(=O)n1-c1cc[nH]n1` [Compound 92, (S)-2-(1-((6-amino-3-bromo-1H-pyrazolo[3,4-d]pyrimidin-4-yl)amino)ethyl)-5-chloro-3-(1H-pyrazol-3-yl)quinazolin-4(3H)-one], the results for the half-inhibitory concentration (IC50) on PI3Kβ, on PI3Kδ and at PI3Kγ (setting [1]) were 0.01 µM, 0.006 µM and 3.8 µM, respectively.

Take `CC[C@H](Nc1nc(N)nc(C)c1C#N)c1nc2c(C#N)cccc2c(=O)n1-c1cn[nH]c1` [Compound 93, (S)-2-(1-((2-amino-5-cyano-6-methylpyrimidin-4-yl)amino)propyl)-4-oxo-3-(1H-pyrazol-4-yl)-3,4-dihydroquinazoline-8-carbonitrile]: the IC50 worked out at 0.016 µM on PI3Kβ, 0.009 µM against PI3Kδ and 3.8 µM on PI3Kγ (setting [1]).

With `CC[C@H](Nc1ncnc2ccc(Cl)nc12)c1nc2c(C#N)cccc2c(=O)n1-c1cn[nH]c1` [Compound 94, (S)-2-(1-((6-chloropyrido[3,2-d]pyrimidin-4-yl)amino)propyl)-4-oxo-3-(1H-pyrazol-4-yl)-3,4-dihydroquinazoline-8-carbonitrile], the results for the IC50 against PI3Kβ, against PI3Kδ and at PI3Kγ (setting [1]) were 0.1 µM, 0.008 µM and 1.5 µM, respectively.

In the case of `CC[C@H](Nc1nc(N)nc(N)c1Cl)c1nc2c(C#N)cccc2c(=O)n1-c1cn[nH]c1` [Compound 95, (S)-2-(1-((2,6-diamino-5-chloropyrimidin-4-yl)amino)propyl)-4-oxo-3-(1H-pyrazol-4-yl)-3,4-dihydroquinazoline-8-carbonitrile], the figures for the IC50 on PI3Kβ, against PI3Kδ and on PI3Kγ were 1.7 µM, 0.3 µM and above 10 µM, respectively.

Regarding `CC[C@H](Nc1nc(N)nc(Cl)c1C#N)c1nc2c(C#N)cccc2c(=O)n1-c1cc[nH]n1` [Compound 96, (S)-2-(1-((2-amino-6-chloro-5-cyanopyrimidin-4-yl)amino)propyl)-4-oxo-3-(1H-pyrazol-3-yl)-3,4-dihydroquinazoline-8-carbonitrile], the figures for the half-inhibitory concentration (IC50) on PI3Kβ, on PI3Kδ and at PI3Kγ were 0.022 µM, 0.012 µM and above 10 µM, respectively.

Take `CC[C@H](Nc1nc(N)nc(N)c1C#N)c1nc2cccc(C#N)c2c(=O)n1-c1cc[nH]n1` [Compound 97, (S)-2-(1-((2,6-diamino-5-cyanopyrimidin-4-yl)amino)propyl)-4-oxo-3-(1H-pyrazol-3-yl)-3,4-dihydroquinazoline-5-carbonitrile]: the half-maximal inhibitory concentration (IC50) at PI3Kβ was determined as 0.017 µM; at PI3Kδ, 0.016 µM; on PI3Kγ (setting [1]), 3.7 µM.

For the compound `CC[C@H](Nc1nc(N)nc(N)c1C#N)c1nc2cccc(Br)c2c(=O)n1-c1cc[nH]n1` [Compound 98, (S)-2,4-diamino-6-((1-(5-bromo-4-oxo-3-(1H-pyrazol-3-yl)-3,4-dihydroquinazolin-2-yl)propyl)amino)pyrimidine-5-carbonitrile], the IC50 on PI3Kβ came to 0.0003 µM; at PI3Kδ, 0.0006 µM; on PI3Kγ (setting [1]), 0.11 µM.

For `CC[C@H](Nc1nc(N)nc(N)c1C#N)c1nc2cccc(Br)c2c(=O)n1-c1cn[nH]c1` [Compound 99, (S)-2,4-diamino-6-((1-(5-bromo-4-oxo-3-(1H-pyrazol-4-yl)-3,4-dihydroquinazolin-2-yl)propyl)amino)pyrimidine-5-carbonitrile], the half-inhibitory concentration (IC50) against PI3Kβ was 0.0008 µM; against PI3Kδ, 0.001 µM; at PI3Kγ (setting [1]) it was 0.093 µM.

For the compound `CC[C@H](Nc1ncnc2scnc12)c1nc2cccc(Br)c2c(=O)n1-c1cn[nH]c1` [Compound 100, (S)-5-bromo-3-(1H-pyrazol-4-yl)-2-(1-(thiazolo[5,4-d]pyrimidin-7-ylamino)propyl)quinazolin-4(3H)-one], the 50% inhibitory concentration (IC50) amounted to 0.022 µM at PI3Kβ, 0.004 µM on PI3Kδ and 0.28 µM at PI3Kγ (setting [1]).

With `CC[C@H](Nc1ncnc2scnc12)c1nc2cccc(Br)c2c(=O)n1-c1cc[nH]n1` [Compound 101, (S)-5-bromo-3-(1H-pyrazol-3-yl)-2-(1-(thiazolo[5,4-d]pyrimidin-7-ylamino)propyl)quinazolin-4(3H)-one], the figures for the IC50 against PI3Kβ, on PI3Kδ and at PI3Kγ (setting [1]) were 0.001 µM, 0.0005 µM and 0.96 µM, respectively.

With `CC[C@H](Nc1nc(N)nc(N)c1C#N)c1nc2cccc(C#N)c2c(=O)n1-c1cn[nH]c1` [Compound 102, (S)-2-(1-((2,6-diamino-5-cyanopyrimidin-4-yl)amino)propyl)-4-oxo-3-(1H-pyrazol-4-yl)-3,4-dihydroquinazoline-5-carbonitrile], the values for the IC50 against PI3Kβ, against PI3Kδ and on PI3Kγ (setting [1]) were 0.082 µM, 0.029 µM and 2.5 µM, respectively.

For the compound `CC[C@H](Nc1ncnc2scnc12)c1nc2cccc(C#N)c2c(=O)n1-c1cn[nH]c1` [Compound 103, (S)-4-oxo-3-(1H-pyrazol-4-yl)-2-(1-(thiazolo[5,4-d]pyrimidin-7-ylamino)propyl)-3,4-dihydroquinazoline-5-carbonitrile], the IC50 was 0.62 µM on PI3Kβ, 0.1 µM against PI3Kδ and 8.7 µM on PI3Kγ (setting [1]).

Consider `C[C@H](Nc1ncnc2scnc12)c1nc2cccc(Cl)c2c(=O)n1-c1n[nH]cc1Br` [Compound 104, (S)-3-(4-bromo-1H-pyrazol-3-yl)-5-chloro-2-(1-(thiazolo[5,4-d]pyrimidin-7-ylamino)ethyl)quinazolin-4(3H)-one], for which the half-inhibitory concentration (IC50) at PI3Kβ was 0.061 µM; at PI3Kδ it was 0.002 µM; at PI3Kγ (setting [1]), 0.5 µM.

Consider `N#Cc1c(N)nc(N)nc1N[C@@H](c1ccccc1)c1nc2cccc(Cl)c2c(=O)n1-c1cc[nH]n1` [Compound 105, (S)-2,4-diamino-6-(((5-chloro-4-oxo-3-(1H-pyrazol-3-yl)-3,4-dihydroquinazolin-2-yl)(phenyl)methyl)amino)pyrimidine-5-carbonitrile], for which the IC50 was 0.005 µM at PI3Kβ, 0.003 µM on PI3Kδ and 0.68 µM at PI3Kγ (setting [1]).

As for `N#Cc1c(N)nc(N)nc1N[C@@H](c1ccccc1)c1nc2cccc(Cl)c2c(=O)n1-c1cn[nH]c1` [Compound 106, (S)-2,4-diamino-6-(((5-chloro-4-oxo-3-(1H-pyrazol-4-yl)-3,4-dihydroquinazolin-2-yl)(phenyl)methyl)amino)pyrimidine-5-carbonitrile], the IC50 on PI3Kβ stood at 0.004 µM; on PI3Kδ it was 0.002 µM; at PI3Kγ (setting [1]) it was 0.21 µM.

As for `Nc1nc(N)c(Cl)c(N[C@@H](c2ccccc2)c2nc3cccc(Cl)c3c(=O)n2-c2cn[nH]c2)n1` [Compound 107, (S)-5-chloro-2-(((2,6-diamino-5-chloropyrimidin-4-yl)amino)(phenyl)methyl)-3-(1H-pyrazol-4-yl)quinazolin-4(3h)-one], the figures for the IC50 at PI3Kβ, at PI3Kδ and at PI3Kγ (setting [1]) were 0.049 µM, 0.011 µM and 2.4 µM, respectively.

As to `Cc1nc(N)nc(N[C@@H](c2ccccc2)c2nc3cccc(Cl)c3c(=O)n2-c2cn[nH]c2)c1C#N` [Compound 108, (S)-2-amino-4-(((5-chloro-4-oxo-3-(1H-pyrazol-4-yl)-3,4-dihydroquinazolin-2-yl)(phenyl)methyl)amino)-6-methylpyrimidine-5-carbonitrile], the IC50 was determined as 0.005 µM on PI3Kβ, 0.001 µM against PI3Kδ and 0.15 µM on PI3Kγ (setting [1]).

As to `Nc1nc(N)c(Cl)c(N[C@@H](c2ccccc2)c2nc3cccc(Cl)c3c(=O)n2-c2cc[nH]n2)n1` [Compound 109, (S)-5-chloro-2-(((2,6-diamino-5-chloropyrimidin-4-yl)amino)(phenyl)methyl)-3-(1H-pyrazol-3-yl)quinazolin-4(3h)-one], the IC50 against PI3Kβ was found to be 0.025 µM; against PI3Kδ it was 0.009 µM; at PI3Kγ (setting [1]), 4.9 µM.
